Results on 64 compounds are retold here after patent publication US6979686B1, “Substituted pyrazoles as p38 kinase inhibitors” (Pharmacia Corporation, priority 2001, dated 2005).

The structures appear in SMILES notation. pIC50: −log10 of the molar value.

The first test deals with T1, human p38 kinase alpha (Homo sapiens, UniProt Q16539).
T1 construct: GST (N, cleaved yes); made in house; host or cells: E. coli DH10B
T1 sequence (Q16539 whole entry): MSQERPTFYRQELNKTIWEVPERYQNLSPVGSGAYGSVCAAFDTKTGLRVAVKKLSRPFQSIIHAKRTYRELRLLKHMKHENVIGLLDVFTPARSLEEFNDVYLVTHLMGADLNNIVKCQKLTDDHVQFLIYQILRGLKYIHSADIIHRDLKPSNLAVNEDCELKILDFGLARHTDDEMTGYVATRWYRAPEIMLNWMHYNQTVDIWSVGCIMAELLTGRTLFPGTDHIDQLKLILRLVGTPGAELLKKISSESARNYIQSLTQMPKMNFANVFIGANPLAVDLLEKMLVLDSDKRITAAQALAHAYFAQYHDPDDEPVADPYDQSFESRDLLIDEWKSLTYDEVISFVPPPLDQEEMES
Description: p38 kinase in vitro assay, phosphorylation of biotinylated PHAS-I with 32P-ATP. It is filed as biochemical. To be noted: @ 1.0 uM.
For `C=CCNC(=O)NCCc1[nH]nc(-c2ccc(F)cc2)c1-c1ccncc1` [Example B-1040], the “P38 alpha kinase % inhib @ conc. (uM)” value was 72.0% @. Still for that read-out and setting: with `O=C(NCCc1[nH]nc(-c2ccc(F)cc2)c1-c1ccncc1)Nc1ccccc1` [Example B-1043] the figure was 64.0% @. For the compound `O=C(NCCc1[nH]nc(-c2ccc(F)cc2)c1-c1ccncc1)c1ccccc1C(F)(F)F` [Example B-0996], the “P38 alpha kinase % inhib @ conc. (uM)” value amounted to 54.0% @.

Regarding `O=C(NCCCc1[nH]nc(-c2ccc(F)cc2)c1-c1ccncc1)c1cccnc1` [Example B-1182], the “P38 alpha kinase % inhib @ conc. (uM)” value came to 72.0% @. On to `CC(C)OC(=O)NCCc1[nH]nc(-c2ccc(F)cc2)c1-c1ccncc1` [Example B-1057], for which the “P38 alpha kinase % inhib @ conc. (uM)” value worked out at 85.0% @.

Turning to `COc1cccc(NC(=O)NCCc2[nH]nc(-c3ccc(F)cc3)c2-c2ccncc2)c1` [Example B-0948], the “P38 alpha kinase % inhib @ conc. (uM)” value is given as 68.0% @.

For the compound `COc1ccc(NC(=O)NCCCc2[nH]nc(-c3ccc(F)cc3)c2-c2ccncc2)c(OC)c1` [Example B-1227], the “P38 alpha kinase % inhib @ conc.” value amounted to 83.0% @. For the compound `CCOC(=O)c1ccc(NC(=O)NCCc2[nH]nc(-c3ccc(F)cc3)c2-c2ccncc2)cc1` [Example B-0949], the “P38 alpha kinase % inhib @ conc. (uM)” value was 90.0% @.

Take `CC(C)COC(=O)NCCCc1[nH]nc(-c2ccc(F)cc2)c1-c1ccncc1` [Example B-1187]: the “P38 alpha kinase % inhib @ conc. (uM)” value was determined as 76.0% @. In the case of `CCS(=O)(=O)NCCc1[nH]nc(-c2ccc(F)cc2)c1-c1ccncc1` [Example B-1023], the “P38 alpha kinase % inhib @ conc. (uM)” value was found to be 93.0% @. Consider `CCCNC(=O)NCCCc1[nH]nc(-c2ccc(F)cc2)c1-c1ccncc1` [Example B-1218], for which the “P38 alpha kinase % inhib @ conc.” value is on record as 88.0% @.

Still in this test, the particulars now being: @ 1.0 uM; read-out: P38 alpha kinase % inhib @ conc.
Regarding `CC(=O)OCC(=O)NCc1[nH]nc(-c2ccc(F)cc2)c1-c1ccncc1` [Example B-0004], the inhibition at 1 µM was determined as 80%.

With `Cc1ccc(C(=O)NCc2[nH]nc(-c3ccc(F)cc3)c2-c2ccncc2)cc1` [Example B-0021], the inhibition at 1 µM was found to be 68%.

For the compound `COCC(=O)NCc1[nH]nc(-c2ccc(F)cc2)c1-c1ccncc1` [Example B-0003], the inhibition at 1 µM was 70%. The same measure, in the same setting: with `O=C(NCc1[nH]nc(-c2ccc(F)cc2)c1-c1ccncc1)c1cc(Cl)cc(Cl)c1` [Example B-0020] the figure was 73%.

The test is the same for the next values; noted with them: @ 10.0 uM.
As for `Cc1c(-c2ccncc2)c(-c2ccc(F)cc2)nn1CC(=O)Nc1cccc(Br)c1` [Example B-2426], the “P38 alpha kinase IC50, uM or % inhib @ conc. (uM): % inhib” value (from here on “P38 alpha kinase IC50 … % inhib”) is given as 88.0% @.

In the case of `CCCCNS(=O)(=O)c1cccc(NC(=O)Cn2nc(-c3ccc(F)cc3)c(-c3ccncc3)c2C)c1` [Example B-2440], the “P38 alpha kinase IC50 … % inhib” value is 77.0% @.

In the case of `CSc1ccccc1NC(=O)Cn1nc(-c2ccc(F)cc2)c(-c2ccncc2)c1C` [Example B-2428], the “P38 alpha kinase IC50 … % inhib” value is listed as 82.0% @. For `CC[C@H](C)[C@H](NC(=O)Cn1nc(-c2ccc(F)cc2)c(-c2ccncc2)c1C)C(=O)OC` [Example B-2353], the “P38 alpha kinase % inhib @ conc.” value was determined as 38.0% @. Consider `CCOC(=O)CC(C)NC(=O)Cn1nc(-c2ccc(F)cc2)c(-c2ccncc2)c1C` (stereo not shown) [Example B-2343], for which the “P38 alpha kinase % inhib @ conc.” value turned out to be 43.0% @. For `CCN(CC)C1CCN(C(=O)Cn2nc(-c3ccc(F)cc3)c(-c3ccncc3)c2C)C1` (stereo not shown) [Example B-2391], the “P38 alpha kinase IC50 … % inhib” value was found to be 40.0% @.

The test is the same for the next values; noted with them: @ 100.0 uM.
With `Cc1c(-c2ccncc2)c(-c2ccc(F)cc2)nn1CC(=O)N1CCCC1` [Example B-2379], the “P38 alpha kinase % inhib @ conc.” value is recorded as 73.0% @.

Still in this test, the particulars now being: in vitro P38-alpha kinase inhibition; read-out: P38 alpha kinase IC50.
For orientation: pIC50 means the IC50 on a negative log10 scale, so that one unit is a factor of ten. On to `COc1ccc(NC(=O)NC(Cc2ccccc2)c2[nH]nc(-c3ccc(F)cc3)c2-c2ccncc2)cc1` (stereo not shown) [Example B-0786], for which the pIC50 is 4.62.

For the compound `CCNC(=O)NC(Cc1ccccc1)c1[nH]nc(-c2ccc(F)cc2)c1-c1ccncc1` (stereo not shown) [Example B-0743], the negative-log IC50 (pIC50) is 5.92. Consider `Cc1ccc(S(=O)(=O)NC(Cc2ccccc2)C(=O)NC(Cc2ccccc2)c2[nH]nc(-c3ccc(F)cc3)c2-c2ccncc2)cc1` (stereo not shown) [Example B-0859], for which the pIC50 is 4.40. Still for that read-out and setting: with `O=C(NC(Cc1ccccc1)c1[nH]nc(-c2ccc(F)cc2)c1-c1ccncc1)N1CCOCC1` (stereo not shown) [Example B-0772] the figure was 6.10; with `COc1cccc(CC(=O)NC(Cc2ccccc2)c2[nH]nc(-c3ccc(F)cc3)c2-c2ccncc2)c1` (stereo not shown) [Example B-0849], 5.90.

Consider `CC(NC(=O)N1CCOCC1)c1[nH]nc(-c2ccc(F)cc2)c1-c1ccncc1` (stereo not shown) [Example B-0582], for which the pIC50 was 5.99. Regarding `O=S(=O)(NCCc1[nH]nc(-c2ccc(F)cc2)c1-c1ccncc1)c1cccc2cccnc12` [Example B-1071], the pIC50 was over 7.00.

For `Cc1ccc(S(C)(=O)=O)cc1S(=O)(=O)NCCc1[nH]nc(-c2ccc(F)cc2)c1-c1ccncc1` [Example B-1119], the pIC50 is 6.46. As to `C=CCNC(=O)NC(C)c1[nH]nc(-c2ccc(F)cc2)c1-c1ccncc1` (stereo not shown) [Example B-0589], the pIC50 was 5.77.

Take `CC(NC(=O)NC(Cc1ccccc1)c1[nH]nc(-c2ccc(F)cc2)c1-c1ccncc1)c1ccccc1` (stereo not shown) [Example B-0781]: the pIC50 was 4.32. The same measure, in the same setting: with `CC(NC(=O)c1cc(F)c(F)cc1F)c1[nH]nc(-c2ccc(F)cc2)c1-c1ccncc1` (stereo not shown) [Example B-0698] the figure was 5.63; with `O=C(NCCc1[nH]nc(-c2ccc(F)cc2)c1-c1ccncc1)c1ccc(F)c(C(F)(F)F)c1` [Example B-1140], 5.77. Regarding `CNC(=O)CCC(NC(=O)NC)c1[nH]nc(-c2ccc(F)cc2)c1-c1ccncc1` (stereo not shown) [Example B-0880], the pIC50 was 6.82. On to `Cc1c(C)c(S(=O)(=O)NC(C)c2[nH]nc(-c3ccc(F)cc3)c2-c2ccncc2)c(C)c2c1OC(C)(C)CC2` (stereo not shown) [Example B-0659], for which the pIC50 is 5.58. Same read-out and setting: next, `CC(=O)OCC(=O)NC(C)c1[nH]nc(-c2ccc(F)cc2)c1-c1ccncc1` (stereo not shown) [Example B-0530]: 5.26; `CC(=O)OC(C)C(=O)NC(C)c1[nH]nc(-c2ccc(F)cc2)c1-c1ccncc1` (stereo not shown) [Example B-0542]: 5.81; `O=C(NCc1ccccc1)NC(Cc1ccccc1)c1[nH]nc(-c2ccc(F)cc2)c1-c1ccncc1` (stereo not shown) [Example B-0725]: 5.01.

As for `C[C@@H](NS(=O)(=O)c1cc(Cl)cc(Cl)c1)c1[nH]nc(-c2ccc(F)cc2)c1-c1ccncc1` [Example B-0464], the pIC50 was over 7.00. Consider `CC(NS(=O)(=O)c1ccc(S(=O)(=O)c2ccccc2)s1)c1[nH]nc(-c2ccc(F)cc2)c1-c1ccncc1` (stereo not shown) [Example B-0665], for which the pIC50 was 6.33. Take `O=S(=O)(NCCc1[nH]nc(-c2ccc(F)cc2)c1-c1ccncc1)c1ccc(-c2ccccn2)s1` [Example B-1111]: the negative logarithm of the IC50 (pIC50) is 6.72. As for `CCCNC(=O)NC(Cc1ccccc1)c1[nH]nc(-c2ccc(F)cc2)c1-c1ccncc1` (stereo not shown) [Example B-0780], the pIC50 was 5.96.

On to `O=S(=O)(NCCc1[nH]nc(-c2ccc(F)cc2)c1-c1ccncc1)c1cccc2cnccc12` [Example B-1118], for which the negative logarithm of the IC50 (pIC50) was 6.48. On to `CC(C)S(=O)(=O)NC(Cc1ccccc1)c1[nH]nc(-c2ccc(F)cc2)c1-c1ccncc1` (stereo not shown) [Example B-0754], for which the pIC50 is 6.26.

On to `C=CCNC(=O)NC(Cc1ccccc1)c1[nH]nc(-c2ccc(F)cc2)c1-c1ccncc1` (stereo not shown) [Example B-0734], for which the pIC50 was 6.04.

The same test, now with this note: in vitro P38-alpha kinase; read-out: P38 alpha kinase IC50.
On to `O=C(c1ccc(F)cc1C(F)(F)F)N1CCC(c2[nH]nc(-c3ccc(F)cc3)c2-c2ccncc2)CC1` [Example B-1410], for which the pIC50 was over 7.00. For the compound `Cc1c(-c2ccncc2)c(-c2ccc(F)cc2)nn1CC(=O)NCCC1=CCCCC1` [Example B-2316], the pIC50 was 6.34. Same read-out and setting: next, `O=S(=O)(c1cc(Cl)ccc1Cl)N1CCC(c2[nH]nc(-c3ccc(F)cc3)c2-c2ccncc2)CC1` [Example B-1450]: 5.68; `CC(C)COC(=O)N1CCC(c2[nH]nc(-c3ccc(F)cc3)c2-c2ccncc2)CC1` [Example B-1424]: 6.07; `O=C(N1CCC(c2[nH]nc(-c3ccc(F)cc3)c2-c2ccncc2)CC1)C(F)(F)F` [Example B-1429]: over 7.00. The same measure, in the same setting: with `O=C(c1cc(Cl)cc(Cl)c1)N1CCC(c2[nH]nc(-c3ccc(F)cc3)c2-c2ccncc2)CC1` [Example B-1419] the figure was 6.52. Same read-out and setting: with `O=C(NCCCc1[nH]nc(-c2ccc(F)cc2)c1-c1ccncc1)c1cc(C(F)(F)F)ccc1F` [Example B-1335] the figure was 7.01; with `O=C(NCCCc1[nH]nc(-c2ccc(F)cc2)c1-c1ccncc1)c1c(F)cccc1C(F)(F)F` [Example B-1338], 6.74.

In the case of `O=C(c1ccco1)N1CCC(c2[nH]nc(-c3ccc(F)cc3)c2-c2ccncc2)CC1` [Example B-1383], the negative-log IC50 (pIC50) was 8.92. Consider `O=C(c1c(F)cccc1C(F)(F)F)N1CCC(c2[nH]nc(-c3ccc(F)cc3)c2-c2ccncc2)CC1` [Example B-1404], for which the pIC50 is 6.22. On the same count and under the same terms, next, `Cc1c(-c2ccncc2)c(-c2ccc(F)cc2)nn1CC(=O)NCCCSC1CCCCC1` [Example B-2306]: 5.23; `O=C(NCc1[nH]nc(-c2ccc(F)cc2)c1-c1ccncc1)c1c(Cl)cccc1Cl` [Example B-0294]: 6.17. On the same count and under the same terms, with `COc1ccc(C(=O)N2CCC(c3[nH]nc(-c4ccc(F)cc4)c3-c3ccncc3)CC2)cc1` [Example B-1391] the figure was 7.80; with `O=C(NCCCc1[nH]nc(-c2ccc(F)cc2)c1-c1ccncc1)c1cccc2ccccc12` [Example B-1329], 6.18. With `COc1ccc(Cl)cc1S(=O)(=O)N1CCC(c2[nH]nc(-c3ccc(F)cc3)c2-c2ccncc2)CC1` [Example B-1445], the pIC50 is 6.37.

With `O=S(=O)(NCCCc1[nH]nc(-c2ccc(F)cc2)c1-c1ccncc1)c1ccc(Cl)cc1` [Example B-1238], the pIC50 is 6.85. On the same count and under the same terms, with `O=S(=O)(c1ccc(Cl)c(Cl)c1)N1CCC(c2[nH]nc(-c3ccc(F)cc3)c2-c2ccncc2)CC1` [Example B-1452] the figure was 5.62; with `O=S(=O)(c1ccc(-c2ccccn2)s1)N1CCC(c2[nH]nc(-c3ccc(F)cc3)c2-c2ccncc2)CC1` [Example B-1439], 5.77.
